The structures appear in SMILES notation.

Usually IC50 stands for the midpoint of a concentration-inhibition curve. Lower therefore signals inhibition by little substance.

This assay deals with SHP2 (Homo sapiens (Human), UniProt Q06124). Briefly: SHP2 allosteric inhibition assay (DiFMUP prompt fluorescence). The format is biochemical. The following applies: 0.25 nM SHP2 activated with 0.5 μM peptide IRS1_pY1172(dPEG8)pY1222; substrate DiFMUP.
Chain of SHP2 (Q06124 whole entry): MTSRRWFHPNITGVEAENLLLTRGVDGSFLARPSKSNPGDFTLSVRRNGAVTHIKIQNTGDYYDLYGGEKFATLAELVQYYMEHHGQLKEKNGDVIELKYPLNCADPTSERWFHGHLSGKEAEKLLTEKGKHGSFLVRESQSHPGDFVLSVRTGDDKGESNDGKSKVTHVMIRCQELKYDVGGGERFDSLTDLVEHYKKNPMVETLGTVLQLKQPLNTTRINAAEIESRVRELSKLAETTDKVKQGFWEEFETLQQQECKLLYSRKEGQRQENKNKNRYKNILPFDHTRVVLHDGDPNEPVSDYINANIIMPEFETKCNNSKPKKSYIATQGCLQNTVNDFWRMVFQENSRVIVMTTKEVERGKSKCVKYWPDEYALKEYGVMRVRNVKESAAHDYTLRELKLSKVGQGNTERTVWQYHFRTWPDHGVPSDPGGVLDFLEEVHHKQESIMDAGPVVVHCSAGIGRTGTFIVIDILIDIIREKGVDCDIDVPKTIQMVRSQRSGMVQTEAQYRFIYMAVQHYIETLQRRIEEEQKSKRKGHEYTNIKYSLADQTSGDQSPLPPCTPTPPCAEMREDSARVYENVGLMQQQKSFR
For the molecule `N[C@@H]1c2ccccc2CC12CCN(c1nccn3ccnc13)CC2` [Example 180], the IC50 fell in the range of 1000 to 10000 nM.

Molecule `N[C@@H]1c2ccccc2CC12CCN(c1cnc(OC3CCCC3)cn1)CC2` [Example 251, (3S)-1′-[5-(cyclopentyloxy)pyrazin-2-yl]-1,3-dihydrospiro[indene-2,4′-piperidin]-3-amine] gave an IC50 greater than 10000 nM. In the case of `Nc1nccc(Sc2cnc(N3CCC4(CC3)Oc3ccccc3[C@H]4N)cn2)c1Cl` [Example 177] it was no more than 50 nM; in that of `N[C@@H]1c2ccccc2CC12CCN(c1nc3[nH]nc(N4CCCc5ncccc54)c3nc1C(F)F)CC2` [Example 140, (S)-1′-(5-(difluoromethyl)-3-(3,4-dihydro-1,5-naphthyridin-1(2H)-yl)-1H-pyrazolo[3,4-b]pyrazin-6-yl)-1,3-dihydrospiro[indene-2,4′-piperidin]-1-amine], no more than 50 nM; in that of `N[C@@H]1c2ccccc2CC12CCN(C1=Nc3ncc(C4CC4)cc3C1)CC2` [Example 229], no more than 50 nM. Under `Cc1nc2c(C3=CCOCC3)n[nH]c2nc1N1CCC2(CC1)Cc1ccccc1[C@H]2N` [Example 167, (3S)-1′-[3-(3,6-dihydro-2H-pyran-4-yl)-5-methyl-1H-pyrazolo[3,4-b]pyrazin-6-yl]-1,3-dihydrospiro[indene-2,4′-piperidin]-3-amine] stands no more than 50 nM; under `CO[C@H]1C[C@@H](N2CCN(c3n[nH]c4nc(N5CCC6(CC5)Cc5ccccc5C6N)cnc34)c3ccc(C#N)cc32)C1` (stereo partly drawn) [Example 32], no more than 50 nM. Under `N[C@@H]1c2ccccc2CC12CCN(c1cnc(N3CCCC[C@@H]3c3ccccc3)cn1)CC2` (racemic) [Example 166, (S)-1′-(5-((R)-2-phenylpiperidin-1-yl)pyrazin-2-yl)-1,3-dihydrospiro[indene-2,4′-piperidin]-1-amine] stands no more than 50 nM. With `N[C@@H]1c2ccccc2C[C@]12CC[C@H](c1ccc(Sc3ccnc(Cl)c3Cl)nc1)CC2` [Example 279, (1s,3'S,4R)-4-{6-[(2,3-dichloropyridin-4-yl)sulfanyl]pyridin-3-yl}-1′,3′-dihydrospiro[cyclohexane-1,2′-inden]-3′-amine], the IC50 was no more than 50 nM. In the case of `Cn1c(N2CCC3(CC2)Cc2ccccc2[C@H]3N)ncc(SCC2CC2)c1=O` [Example 238] it was no more than 50 nM; in that of `Cn1ccc2c(c1=O)CCCN2c1n[nH]c2nc(N3CCC4(CC3)Cc3ccc(F)cc3[C@H]4N)cnc12` [Example 58], no more than 50 nM; in that of `N[C@@H]1c2ccccc2OC12CCN(c1cnc(Oc3ccnc(Cl)c3Cl)cn1)CC2` [Example 64], no more than 50 nM.

Regarding `N[C@@H]1c2ccccc2CC12CCN(C(=O)c1csc(-c3c(Cl)cccc3Cl)n1)CC2` [Example 286, (1S)-1′-[2-(2,6-dichlorophenyl)-1,3-thiazole-4-carbonyl]-1,3-dihydrospiro[indene-2,4′-piperidin]-1-amine], the IC50 was no more than 50 nM. Regarding `N[C@@H]1c2ccccc2CC12CCN(c1cnc3c(N4CCCc5nc(-c6ncco6)ccc54)n[nH]c3n1)CC2` [Example 37], the IC50 is no more than 50 nM. Under `N#Cc1nc(Sc2ccnc(Cl)c2Cl)cnc1N1CCC2(CC1)Cc1ccccc1[C@H]2N` [Example 220] stands no more than 50 nM; under `N[C@@H]1c2cnccc2CC12CCN(c1cnc3c(N4CCCc5ncccc54)n[nH]c3n1)CC2` [Example 50], no more than 50 nM; under `CS(=O)(=O)c1cccc2c1CCCN2c1n[nH]c2nc(N3CCC4(CC3)Cc3ccc(F)cc3[C@H]4N)cnc12` [Example 41], no more than 50 nM.

The molecule `CN(c1ccnc(N)c1)c1n[nH]c2nc(N3CCC4(CC3)Cc3ccccc3[C@H]4N)cnc12` [Example 148, (S)—N4-(6-(1-amino-1,3-dihydrospiro[indene-2,4′-piperidin]-1′-yl)-1H-pyrazolo[3,4-b]pyrazin-3-yl)-N4-methylpyridine-2,4-diamine] returned an IC50 of no more than 50 nM. Molecule `N[C@@H]1c2ccccc2OC12CCN(c1cnc(Sc3cccnc3Cl)cn1)CC2` [Example 96] registered an IC50 of no more than 50 nM. In the case of `Cc1nc(N2CCC3(CC2)Oc2ccccc2[C@H]3N)c(CO)nc1-c1cccc(Cl)c1Cl` [Example 268, (R)-(3-(3-amino-3H-spiro[benzofuran-2,4′-piperidin]-1′-yl)-6-(2,3-dichlorophenyl)-5-methylpyrazin-2-yl)methanol] it was no more than 50 nM. In the case of `Nc1nccc(Sc2cnc(N3CCC4(CC3)Cc3c(F)cccc3[C@H]4N)cn2)c1Cl` [Example 139, (S)-1′-(5-((2-amino-3-chloropyridin-4-yl)thio)pyrazin-2-V)-4-fluoro-1,3-dihydrospiro[indene-2,4′-piperidin]-1-amine] it was no more than 50 nM; in that of `Cn1cnc2c(N3CCC4(CC3)Cc3ccccc3[C@H]4N)ncnc21` [Example 184], 50 to 1000 nM; in that of `Cn1cc(-c2ccc3c(n2)CCCN3c2n[nH]c3nc(N4CCC5(CC4)Cc4c(F)cccc4[C@H]5N)cnc23)cn1` [Example 42], no more than 50 nM. In the case of `COc1n[nH]c2nc(N3CCC4(CC3)Cc3ccccc3[C@H]4N)c(CO)nc12` [Example 158, {6-[(3S)-3-amino-1,3-dihydrospiro[indene-2,4′-piperidin]-1′-yl]-3-methoxy-1H-pyrazolo[3,4-b]pyrazin-5-yl}methanol] it was no more than 50 nM; in that of `N#Cc1n[nH]c2nc(N3CCC4(CC3)Cc3ccccc3[C@H]4N)c(CO)nc12` [Example 154, 6-[(3S)-3-amino-1,3-dihydrospiro[indene-2,4′-piperidin]-1′-yl]-5-(hydroxymethyl)-1H-pyrazolo[3,4-b]pyrazine-3-carbonitrile], no more than 50 nM. `N[C@@H]1c2ccccc2CC12CCN(c1cnc(Oc3ccnc(Cl)c3Cl)cn1)CC2` [Example 134, (3S)-1′-{5-[(2,3-dichloropyridin-4-yl)oxy]pyrazin-2-yl}-1,3-dihydrospiro[indene-2,4′-piperidin]-3-amine] returned a 50% inhibitory concentration (IC50) of no more than 50 nM. Under `N[C@@H]1c2ccccc2CC12CCN(c1nn3cc(C4CCCC4)nc3s1)CC2` [Example 252, (1S)-1′-{6-cyclopentylimidazo[2,1-b][1,3,4]thiadiazol-2-yl}-1,3-dihydrospiro[indene-2,4′-piperidin]-1-amine] stands no more than 50 nM; under `N[C@@H]1c2ccccc2CC12CCN(c1ncnc3c1cnn3-c1ccccc1)CC2` [Example 195, (3S)-1′-{1-phenyl-1Hpyrazolo[3,4-d]pyrimidin-4-yl}-1,3-dihydrospiro[indene-2,4′-piperidin]-3-amine], no more than 50 nM; under `N[C@H]1c2ccccc2CC12CCN(c1cnc3c(-c4cc5cc[nH]c5cc4F)n[nH]c3n1)CC2` [Example 73], no more than 50 nM. In the case of `CN(C)C(=O)c1ccc2c(c1)[C@@H](N)C1(CCN(c3cnc4c(N5CCCc6ncccc65)n[nH]c4n3)CC1)C2` [Example 27] it was no more than 50 nM; in that of `N[C@@H]1c2ccccc2CC12CCN(c1cnc(SC3CCC3)cn1)CC2` [Example 236], no more than 50 nM; in that of `Cc1nc2c(N3CCCCC3)n[nH]c2nc1N1CCC2(CC1)Oc1ccc(F)cc1[C@H]2N` [Example 208], 1000 to 10000 nM.

As to `Cc1nc(Sc2ccnc(N)c2Cl)cnc1N1CCC2(CC1)Cc1ccccc1[C@H]2N` [Example 84, (S)-1′-(5-((2-amino-3-chloropyridin-4-yl)thio)-3-methylpyrazin-2-yl)-1,3-dihydrospiro[indene-2,4′-piperidin]-1-amine], the IC50 was no more than 50 nM.

`Cc1nc2c(N3CCOCC3)n[nH]c2nc1N1CCC2(CC1)Cc1ccccc1[C@H]2N` [Example 160, (3S)-1′-[5-methyl-3-(morpholin-4-yl)-1H-pyrazolo[3,4-b]pyrazin-6-yl]-1,3-dihydrospiro[indene-2,4′-piperidin]-3-amine] returned an IC50 of no more than 50 nM.

Consider `Nc1nccc(Sc2ccc(N3CCC4(CC3)Cc3cc(F)ccc3[C@H]4N)cn2)c1Cl` [Example 217], for which the IC50 is no more than 50 nM. Take `Cc1nc2c(ccn2C2=CCOCC2)nc1N1CCC2(CC1)Cc1ccccc1[C@H]2N` [Example 193, (3S)-1′-[5-(3,6-dihydro-2H-pyran-4-yl)-3-methyl-5H-pyrrolo[2,3-b]pyrazin-2-yl]-1,3-dihydrospiro[indene-2,4′-piperidin]-3-amine]: the IC50 was no more than 50 nM. Under `N[C@@H]1c2ccccc2CC12CCN(c1cnc(OCC3CC3)cn1)CC2` [Example 171, (3S)-1′-[5-(cyclopropylmethoxy)pyrazin-2-yl]-1,3-dihydrospiro[indene-2,4′-piperidin]-3-amine] stands no more than 50 nM. Under `N[C@@H]1c2c(F)ccc(F)c2CC12CCN(c1cnc3c(N4CCCc5ncccc54)n[nH]c3n1)CC2` [Example 112] stands no more than 50 nM. Under `Nc1nccc(Sc2cnc(N3CCC4(CC3)Cc3ccccc3[C@@H]4N)cn2)c1Cl` [Example 80, (R)-1′-(5-((2-amino-3-chloropyridin-4-yl)thio)pyrazin-2-yl)-1,3-dihydrospiro[indene-2,4′-piperidin]-1-amine] stands no more than 50 nM; under `C[C@@H](O)c1nc2c(N3CCCc4ncccc43)n[nH]c2nc1N1CCC2(CC1)Cc1ccccc1[C@H]2N` (single isomer, unassigned) [Example 141], no more than 50 nM. The molecule `N[C@@H]1c2ccccc2CC12CCN(c1cnc(N3CCC[C@H]3c3ccccc3)cn1)CC2` (racemic) [Example 165, (3S)-1′-{5-[(2S)-2-phenylpyrrolidin-1-yl]pyrazin-2-yl}-1,3-dihydrospiro[indene-2,4′-piperidin]-3-amine] gave an IC50 greater than 10000 nM.

`C[C@H](O)c1nc2c(N3CCCc4ncccc43)n[nH]c2nc1N1CCC2(CC1)Cc1ccccc1[C@H]2N` (single isomer, unassigned) [Example 142] displayed a half-inhibitory concentration (IC50) of no more than 50 nM. For the molecule `N[C@@H]1c2ccccc2CC12CCN(c1cnc(SC3CCOCC3)cn1)CC2` [Example 185, (S)-1′-(5-((tetrahydro-2H-pyran-4-yl)thio)pyrazin-2-yl)-1,3-dihydrospiro[indene-2,4′-piperidin]-1-amine], the IC50 was 1000 to 10000 nM. In the case of `Cn1ncc2c(N3CCC4(CC3)Cc3ccccc3[C@H]4N)ncnc21` [Example 181] it was 1000 to 10000 nM; in that of `Cc1nc(N2CCCc3ncccc32)cnc1N1CCC2(CC1)Cc1ccccc1[C@H]2N` [Example 196], no more than 50 nM.

For the origin of these results see patent US10934302B1, “SHP2 phosphatase inhibitors and methods of use thereof” (Relay Therapeutics, Inc., priority 2018, dated 2021).
